Changes are numbered by the printed parent chain. The source made the active and inactive calls. No cut-off for these calls is given here.

For assay [1], the target named is T1, Ubiquitin carboxyl-terminal hydrolase 2 (Homo sapiens) (UniProt O75604).
T1 sequence (whole entry): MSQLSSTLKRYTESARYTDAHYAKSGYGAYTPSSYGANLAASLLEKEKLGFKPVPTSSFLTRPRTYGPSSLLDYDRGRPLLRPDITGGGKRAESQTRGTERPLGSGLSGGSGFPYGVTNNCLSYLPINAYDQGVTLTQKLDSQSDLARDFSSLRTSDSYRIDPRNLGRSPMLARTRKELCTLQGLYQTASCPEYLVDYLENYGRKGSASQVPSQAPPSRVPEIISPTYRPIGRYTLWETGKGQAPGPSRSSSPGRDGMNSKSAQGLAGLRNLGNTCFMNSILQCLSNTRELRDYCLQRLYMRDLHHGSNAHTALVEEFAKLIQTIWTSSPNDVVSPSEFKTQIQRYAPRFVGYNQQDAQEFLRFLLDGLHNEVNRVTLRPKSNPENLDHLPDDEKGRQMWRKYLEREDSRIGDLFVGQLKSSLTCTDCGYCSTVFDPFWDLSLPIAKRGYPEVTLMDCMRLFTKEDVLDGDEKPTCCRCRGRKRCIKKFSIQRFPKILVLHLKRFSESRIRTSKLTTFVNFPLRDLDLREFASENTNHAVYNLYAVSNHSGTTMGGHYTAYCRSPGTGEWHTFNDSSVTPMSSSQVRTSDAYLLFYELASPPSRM
Description: Inhibition of human USP2 using Ub-AMC as substrate at 1 to 30 uM after 60 mins by fluorometric analysis.

Assay [2] deals with Calpain1/2 (Homo sapiens) (UniProt P17655+P07384). The assay is described as follows: Inhibition of calpain1/2 (unknown origin) using Suc-LLVY-AMC as substrate at 6.3 uM after 20 mins by fluorometric analysis. The format is protein assay.
Chain of Calpain1/2 (Homo sapiens) (P07384 whole entry, looked up): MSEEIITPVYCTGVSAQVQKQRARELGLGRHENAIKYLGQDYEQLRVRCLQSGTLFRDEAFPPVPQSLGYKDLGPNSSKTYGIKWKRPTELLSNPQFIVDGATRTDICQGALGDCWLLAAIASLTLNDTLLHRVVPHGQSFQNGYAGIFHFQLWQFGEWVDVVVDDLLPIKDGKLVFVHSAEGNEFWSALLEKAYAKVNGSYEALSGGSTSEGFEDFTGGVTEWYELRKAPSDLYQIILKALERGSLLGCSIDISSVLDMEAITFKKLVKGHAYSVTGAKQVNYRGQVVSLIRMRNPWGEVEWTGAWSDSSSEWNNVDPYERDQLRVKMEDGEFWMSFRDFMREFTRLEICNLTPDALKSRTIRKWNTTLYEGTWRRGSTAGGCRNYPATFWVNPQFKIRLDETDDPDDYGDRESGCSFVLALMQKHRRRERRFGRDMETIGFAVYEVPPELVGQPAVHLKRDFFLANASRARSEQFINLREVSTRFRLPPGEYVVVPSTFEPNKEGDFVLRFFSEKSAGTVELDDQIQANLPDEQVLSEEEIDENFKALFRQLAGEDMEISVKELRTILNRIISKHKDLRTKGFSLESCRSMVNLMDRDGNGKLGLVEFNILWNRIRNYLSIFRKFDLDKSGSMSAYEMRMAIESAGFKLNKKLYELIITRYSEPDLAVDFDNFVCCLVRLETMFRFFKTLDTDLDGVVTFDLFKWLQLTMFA
Chain of Calpain1/2 (Homo sapiens) (P17655 whole entry, looked up): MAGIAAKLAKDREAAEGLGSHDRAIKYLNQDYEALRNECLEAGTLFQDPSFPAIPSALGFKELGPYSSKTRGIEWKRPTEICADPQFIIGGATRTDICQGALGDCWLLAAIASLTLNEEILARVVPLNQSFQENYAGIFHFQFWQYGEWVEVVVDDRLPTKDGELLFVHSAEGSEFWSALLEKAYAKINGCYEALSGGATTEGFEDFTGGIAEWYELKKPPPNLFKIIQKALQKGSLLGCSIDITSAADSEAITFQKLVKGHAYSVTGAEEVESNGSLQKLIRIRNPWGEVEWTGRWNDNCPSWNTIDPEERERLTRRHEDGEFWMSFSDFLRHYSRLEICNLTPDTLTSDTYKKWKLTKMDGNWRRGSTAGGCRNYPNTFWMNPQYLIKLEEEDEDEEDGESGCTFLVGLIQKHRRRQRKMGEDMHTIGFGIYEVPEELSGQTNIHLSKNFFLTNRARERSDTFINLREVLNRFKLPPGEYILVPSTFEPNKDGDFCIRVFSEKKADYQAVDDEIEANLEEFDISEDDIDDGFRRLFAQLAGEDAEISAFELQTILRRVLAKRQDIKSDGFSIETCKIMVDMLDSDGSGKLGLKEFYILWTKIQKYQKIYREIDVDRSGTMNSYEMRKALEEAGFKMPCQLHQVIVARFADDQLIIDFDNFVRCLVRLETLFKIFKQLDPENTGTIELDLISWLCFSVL
The target in assay [3] is T2, Ubiquitin carboxyl-terminal hydrolase 5 (Homo sapiens) (UniProt P45974).
T2 sequence (whole entry): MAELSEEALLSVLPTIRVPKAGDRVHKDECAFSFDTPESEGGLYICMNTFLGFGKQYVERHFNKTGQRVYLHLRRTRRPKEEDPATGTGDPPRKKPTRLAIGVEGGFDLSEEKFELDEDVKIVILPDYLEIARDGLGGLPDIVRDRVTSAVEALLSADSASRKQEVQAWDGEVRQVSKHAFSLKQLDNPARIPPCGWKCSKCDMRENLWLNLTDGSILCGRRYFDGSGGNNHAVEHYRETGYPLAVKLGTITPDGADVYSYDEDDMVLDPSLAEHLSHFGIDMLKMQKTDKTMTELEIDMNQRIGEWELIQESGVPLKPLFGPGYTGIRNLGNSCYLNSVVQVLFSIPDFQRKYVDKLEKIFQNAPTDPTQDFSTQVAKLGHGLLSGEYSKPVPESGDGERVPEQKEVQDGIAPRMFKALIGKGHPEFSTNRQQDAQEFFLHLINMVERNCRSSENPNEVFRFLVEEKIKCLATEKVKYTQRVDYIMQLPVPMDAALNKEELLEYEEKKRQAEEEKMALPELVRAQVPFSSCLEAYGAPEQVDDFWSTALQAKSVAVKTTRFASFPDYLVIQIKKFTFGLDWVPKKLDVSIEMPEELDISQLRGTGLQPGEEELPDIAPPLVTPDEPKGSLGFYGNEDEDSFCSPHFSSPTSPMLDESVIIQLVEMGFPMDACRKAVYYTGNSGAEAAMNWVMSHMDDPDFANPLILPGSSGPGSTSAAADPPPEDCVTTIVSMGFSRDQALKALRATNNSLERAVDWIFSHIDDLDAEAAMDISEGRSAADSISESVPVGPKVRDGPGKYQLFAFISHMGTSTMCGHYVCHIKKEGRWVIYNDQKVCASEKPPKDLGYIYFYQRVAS
Description: Inhibition of wild type human USP5 expressed in Escherichia coli BL21(DE3) using K48-linked tetraubiquitin as substrate assessed as substrate hydrolysis at 10 uM after 15 mins by SDS-PAGE analysis.

Assay [4] addresses T3, Ubiquitin carboxyl-terminal hydrolase isozyme L1 (Homo sapiens, UniProt P09936).
T3 sequence (P09936 whole entry): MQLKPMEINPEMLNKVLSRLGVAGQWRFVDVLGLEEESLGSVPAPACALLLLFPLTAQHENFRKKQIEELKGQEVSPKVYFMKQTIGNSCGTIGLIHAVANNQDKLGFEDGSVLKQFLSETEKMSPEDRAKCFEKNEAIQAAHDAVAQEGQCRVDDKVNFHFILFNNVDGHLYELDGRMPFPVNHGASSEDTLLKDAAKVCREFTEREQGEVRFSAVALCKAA
Description: Inhibition of human UCH-L1 using Ub-AMC as substrate after 60 mins by fluorometric analysis.

Assay [5] relates to T4, Ubiquitin carboxyl-terminal hydrolase 5 (Homo sapiens), P45974 [H818A].
T4 sequence (whole entry): T2 sequence (whole entry) with H818A
Description: Competitive binding affinity to human USP5 H818A mutant by SDS-PAGE analysis in presence of biotin-DMT.

For the molecule `O=C(Cc1ccccc1)Oc1c(OC(=O)Cc2ccccc2)c(-c2ccc(O)cc2)c(O)c(O)c1-c1ccc(O)cc1` [VIALININ A], the inhibition result in assay [1] and in assay [2] was “inactive” throughout. Also, the inhibition entry in assay [3] is “Active”. Further, in assay [4], the IC50 (in general, the point on the concentration scale where inhibition reaches its midpoint) worked out at 22.3 µM. Moreover, the result in assay [5] was inactive.

The record behind these values is ChEMBL document CHEMBL2406999, “Vialinin A is a ubiquitin-specific peptidase inhibitor” (Bioorg Med Chem Lett, 2013).
